Values of other authors in patent US11964046B2, “Topical composition for the control of pain in animals” (priority 2016, dated 2024).

Tested on: piglets
[1] = lidocaine injected at least three minutes prior to castration, p<0.001

SMILES: CCN(CC)CC(=O)Nc1c(C)cccc1C [lidocaine]
- pain during castration (study conclusion) (injected): reduced pain during castration
- intensity of calls during castration [1]: lower intensity
- resistance movements during castration [1]: less resistance movements
